Reference: the supplement of paper PMC8671470

Key:
Conditions in all cases: 72 h
KU-812 [1] = system: KU-812
Method in brief: (§1)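 Fifteen myeloid leukaemia lines were incubated for 72 h at 37 °C with 5% CO2 across five tenfold doses from 1 to 10,000 nM, in duplicate. ATP luminescence was normalised to vehicle and to a positive control at 10 µM and fitted with a four-parameter log-logistic model. The IC50 came from these dose–response fits.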

Mono-Mac-6 [2] = system: Mono-Mac-6
Method in brief: as §1

BV-173 [3] = system: BV-173
Method in brief: as §1

HL-60 [4] = system: HL-60
Method in brief: as §1

LAMA-84 [5] = system: LAMA-84
Method in brief: as §1

HEL [6] = system: HEL
Method in brief: as §1

KG-1 = system: KG-1
Method in brief: as §1

MV4-11 = system: MV4-11
Method in brief: as §1

SHI-1 [7] = system: SHI-1
Method in brief: as §1

MOLM-13 = system: MOLM-13
Method in brief: as §1

NOMO-1 [8] = system: NOMO-1
Method in brief: as §1

ML-2 [9] = system: ML-2
Method in brief: as §1

KCL-22 [10] = system: KCL-22
Method in brief: as §1

THP-1 = system: THP-1
Method in brief: as §1

K-562 [11] = system: K-562
Method in brief: as §1

HL-60 [12] = assay: area under dose-response curve (viability, 1 nM-10 uM) (fraction (0-1)); higher = more sensitive
Method in brief: (§2)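 For each screen, HL-60 cells in RPMI 1640 with 10% FBS carried either DMSO or 100 nM of one of three metabolic inhibitors while the full library was applied at five tenfold concentrations, 1–10,000 nM, in duplicate. Plates were 384-well and were kept 72 h at 37 °C, 5% CO2. Viability, measured by CellTiter-Glo, was normalised to wells with DMSO and with 10 μM proteasome inhibitor. Where area under the curve appears, it was fitted by four-parameter log-logistic models in drc and PharmacoGx.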

KU-812 [13] = assay: cell viability (% survival relative to DMSO control, bortezomib = 0%); higher = less cytotoxic
Method in brief: (§3)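 Reported values are percent survival from duplicate wells, averaged. Fifteen myeloid leukaemia cell lines were treated in 384-well plates with compounds at 1, 10, 100, 1000 or 10000 nM for 72 h at 37 °C in 5% CO2. Signals from CellTiter-Glo luminescence were scaled with vehicle as 100% and a 10 µM positive control as 0%.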

Mono-Mac-6 [14] = assay: as above
Method in brief: as §3

BV-173 [15] = assay: as above
Method in brief: as §3

HL-60 [16] = assay: as above
Method in brief: as §3

LAMA-84 [17] = assay: as above
Method in brief: as §3

HEL [18] = assay: as above
Method in brief: as §3

SHI-1 [19] = assay: as above
Method in brief: as §3

NOMO-1 [20] = assay: as above
Method in brief: as §3

ML-2 [21] = assay: as above
Method in brief: as §3

KCL-22 [22] = assay: as above
Method in brief: as §3

K-562 [23] = assay: as above
Method in brief: as §3

HL-60 [24] = assay: cell viability (% survival relative to DMSO control); higher = less cytotoxic
Method in brief: as §2

O=C(O)Cn1nnc(-c2cc(N3CCC(Oc4cc(F)ccc4Br)CC3)no2)n1 [MK-8245]
Conditions | IC50 (cell viability) [µM]
BV-173 [3] | > 10
HEL [6] | > 10
HL-60 [4] | > 10
K-562 [11] | 6.81
KCL-22 [10] | > 10
KG-1 | > 10
KU-812 [1] | > 10
LAMA-84 [5] | > 10
ML-2 [9] | > 10
MOLM-13 | 0.643
MV4-11 | > 10
Mono-Mac-6 [2] | > 10
NOMO-1 [8] | > 10
SHI-1 [7] | > 10
THP-1 | > 10

Conditions | area under dose-response curve, co-treatment: AZD3965 100 nM | area under dose-response curve, co-treatment: DMSO vehicle | area under dose-response curve, co-treatment: GSK2194069 100 nM | area under dose-response curve, co-treatment: pictilisib 100 nM | cell viability, 1 nM [%] | cell viability, 10 nM [%] | cell viability, 100 nM [%] | cell viability, 1000 nM [%] | cell viability, 10000 nM [%]
BV-173 [15] | – | – | – | – | 88.1 | 105 | 91.2 | 88.6 | 87.3
HEL [18] | – | – | – | – | 108 | 115 | 75.6 | 92.7 | 91.2
HL-60 [12] | < 0.0301 | < 0.0301 | < 0.0301 | < 0.0301 | – | – | – | – | –
HL-60 [16] | – | – | – | – | 105 | 93.2 | 108 | 50.7 | 94.3
K-562 [23] | – | – | – | – | 97.7 | 122 | 90.5 | 88.2 | 41.2
KCL-22 [22] | – | – | – | – | 105 | 118 | 95.5 | 97.7 | 60.1
KU-812 [13] | – | – | – | – | 99 | 107 | 93.4 | 88.2 | 94.7
LAMA-84 [17] | – | – | – | – | 99.6 | 109 | 95.1 | 95.5 | 91.6
ML-2 [21] | – | – | – | – | 109 | 111 | 102 | 105 | 96.7
Mono-Mac-6 [14] | – | – | – | – | 91.1 | 90.8 | 94.2 | 94.6 | 88
NOMO-1 [20] | – | – | – | – | 95.8 | 103 | 96.9 | 96.9 | 90
SHI-1 [19] | – | – | – | – | 99 | 119 | 103 | 97.8 | 90.8

cell viability [%], HL-60 [24]
Conditions | 0.001 µM | 0.01 µM | 0.1 µM | 1 µM | 10 µM
co-treatment: AZD3965 100 nM | 94.6 | 102 | 96.7 | 94.6 | 108
co-treatment: DMSO vehicle | 99.9 | 99.3 | 97.87 | 94.57 | 100
co-treatment: GSK2194069 100 nM | 96.6 | 100 | 101 | 90.2 | 97.4
co-treatment: pictilisib 100 nM | 95.7 | 96.7 | 104 | 90.7 | 103
